Drawing on patent publication US20260028336A1 (Arcus Biosciences, Inc., priority 2022, published 2026), this text covers IC50 and EC50 for 21 compounds.

For assay [1], the target named is T1, Cbl-b (Homo sapiens, UniProt Q13191).
T1 construct: biotin (biotinylated)
In words: Cbl-b probe displacement HTRF binding assay. As to conditions: 0.4 nM biotinylated Cbl-b, 150 nM BODIPY probe. Put shortly: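 Biotinylated Cbl-b was preincubated with compound for 60 min at room temperature in HEPES/NaCl/Triton/TCEP/BSA buffer. BODIPY probe was added for 15 min, followed by streptavidin-terbium, and the HTRF signal was read. Displacement was normalised to DMSO and no-protein controls, and affinity was obtained from a four-parameter dose-response fit.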
A general note: TR-FRET usually uses a lanthanide donor and a delayed reading to cut background.

Assay [2] deals with Jurkat cells. The experiment in a line: IL-2 secretion assay in CD3/CD28-activated Jurkat cells (AlphaLISA). The assay is classed as cell-based. The note with it: Homo sapiens, CD3/CD28 T Cell Activator, 24 h, IL-2 AlphaLISA. The protocol: Certain compounds were also evaluated in an IL-2 secretion assay. On the day of the assay, a 16 point, 1:2 master serial dilution of each compound was prepared in Opti-MEM to span a final concentration range of 10 μM to 300 pM. Assays were set up in CORNING® tissue culture-treated 384-well microplates containing 60 nL of each dilution. […] 50,000 cells/well and added to the compound plates. After a short spin (1200 rpm for 1 min), the plates were incubated at 37° C. for 1 hour. The cells were activated by adding 15 μL of IMMUNOCULT™ Human CD3/CD28 T Cell Activator ([…] Technologies) diluted in Opti-MEM. […] The AiphaLISA signal was measured using an EnVision plate reader (PerkinElmer). EC50 values were determined by fitting the data to a standard 4-parameter logistic equation.
(In general: Bead proximity is the source of the signal in Alpha formats.)

pEC50, pIC50: −log10 of the molar value.

T1 sequence (Q13191 whole entry, species assumed): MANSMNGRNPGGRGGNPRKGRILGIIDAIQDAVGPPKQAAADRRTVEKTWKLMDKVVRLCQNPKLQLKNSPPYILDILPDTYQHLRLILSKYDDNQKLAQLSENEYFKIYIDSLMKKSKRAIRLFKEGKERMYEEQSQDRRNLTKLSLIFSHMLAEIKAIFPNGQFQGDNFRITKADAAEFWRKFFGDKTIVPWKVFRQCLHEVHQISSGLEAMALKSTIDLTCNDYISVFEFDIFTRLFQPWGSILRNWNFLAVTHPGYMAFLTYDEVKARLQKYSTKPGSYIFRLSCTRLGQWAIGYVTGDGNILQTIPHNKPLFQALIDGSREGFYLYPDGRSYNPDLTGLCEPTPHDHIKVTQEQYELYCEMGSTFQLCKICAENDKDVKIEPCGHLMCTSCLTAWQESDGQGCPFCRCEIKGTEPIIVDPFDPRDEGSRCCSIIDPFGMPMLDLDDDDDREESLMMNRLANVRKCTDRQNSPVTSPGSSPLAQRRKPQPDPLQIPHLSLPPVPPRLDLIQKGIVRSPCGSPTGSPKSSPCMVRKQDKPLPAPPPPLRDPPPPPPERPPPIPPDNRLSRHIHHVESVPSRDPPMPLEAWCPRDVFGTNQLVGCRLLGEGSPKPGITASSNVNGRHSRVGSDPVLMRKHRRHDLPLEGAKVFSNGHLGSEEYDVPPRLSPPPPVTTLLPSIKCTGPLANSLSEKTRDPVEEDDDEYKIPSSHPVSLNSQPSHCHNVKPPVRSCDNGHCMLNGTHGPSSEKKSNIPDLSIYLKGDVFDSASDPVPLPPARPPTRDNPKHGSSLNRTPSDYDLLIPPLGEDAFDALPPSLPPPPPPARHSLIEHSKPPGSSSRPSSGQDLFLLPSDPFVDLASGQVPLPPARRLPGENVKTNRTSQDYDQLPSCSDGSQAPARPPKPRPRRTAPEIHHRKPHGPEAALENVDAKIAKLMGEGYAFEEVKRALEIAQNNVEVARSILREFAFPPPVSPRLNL

Turning to `CC1CC(c2cccc(-n3cc(C4CC4)c4cc(CN[C@@H]5CCCOC5)[nH]c4c3=O)c2)(c2nncn2C)C1` (stereo partly drawn) [Example 49, 4-cyclopropyl-6-{3-[3-methyl-1-(4-methyl-4H-1,2,4-triazol-3-yl)cyclobutyl]phenyl}-2-{[(oxan-3-yl)amino]methyl}-1H,6H,7H-pyrrolo[2,3-c]pyridin-7-one], in assay [1], the pIC50 is greater than 7.00. In assay [2], the negative-log EC50 (pEC50) was greater than 7.00.

For `CC1CC(c2cccc(-n3cc(C4CC4)c4cc(CN5CCC6(CC5)CC6)[nH]c4c3=O)c2)(c2nncn2C)C1` (stereo not drawn) [Example 50, 2-({6-azaspiro[2.5]octan-6-yl}methyl)-4-cyclopropyl-6-{3-[3-methyl-1-(4-methyl-4H-1,2,4-triazol-3-yl)cyclobutyl]phenyl}-1H,6H,7H-pyrrolo[2,3-c]pyridin-7-one], in assay [1], the negative logarithm of the IC50 (pIC50) was greater than 7.00. Moreover, the negative logarithm of the EC50 (pEC50) in assay [2] is greater than 7.00.

`CC1CC(c2cccc(-n3cc(C4CC4)c4cc(CN5C[C@H]6C[C@@H]5CO6)[nH]c4c3=O)c2)(c2nncn2C)C1` (stereo partly drawn) [Example 51, 4-cyclopropyl-6-{3-[3-methyl-1-(4-methyl-4H-1,2,4-triazol-3-yl)cyclobutyl]phenyl}-2-{[(1R,4R)-2-oxa-5-azabicyclo[2.2.1]heptan-5-yl]methyl}-1H,6H,7H-pyrrolo[2,3-c]pyridin-7-one] gave a pIC50 in assay [1] greater than 7.00. Moreover, in assay [2], the negative-log EC50 (pEC50) was 6.00 to 7.00.

`CC1CC(c2cccc(-n3cc(C4CC4)c4cc(CN5CC6CCC5C6)[nH]c4c3=O)c2)(c2nncn2C)C1` (stereo not drawn) [Example 52, 2-({2-azabicyclo[2.2.1]heptan-2-yl}methyl)-4-cyclopropyl-6-{3-[3-methyl-1-(4-methyl-4H-1,2,4-triazol-3-yl)cyclobutyl]phenyl}-1H,6H,7H-pyrrolo[2,3-c]pyridin-7-one]: the pIC50 in assay [1] was greater than 7.00. In assay [2], this compound showed a pEC50 greater than 7.00.

Take `CC1CC(c2cccc(-n3cc(C4CC4)c4cc(CN(C)C5CC5)[nH]c4c3=O)c2)(c2nncn2C)C1` (stereo not drawn) [Example 54, 4-cyclopropyl-2-{I[cyclopropyl(methyl)amino]methyl}-6-{3-[3-methyl-1-(4-methyl-4H-1,2,4-triazol-3-yl)cyclobutyl]phenyl}-1H,6H,7H-pyrrolo[2,3-c]pyridin-7-one]: in assay [1], the negative logarithm of the IC50 (pIC50) was greater than 7.00. Moreover, the pEC50 in assay [2] is 6.00 to 7.00.

Regarding `CC1CC(c2cccc(-n3cc(C4CC4)c4cc(CN(C)C)[nH]c4c3=O)c2)(c2nncn2C)C1` (stereo not drawn) [Example 55, 4-cyclopropyl-2-[(dimethylamino)methyl]-6-{3-[3-methyl-1-(4-methyl-4H-1,2,4-triazol-3-yl)cyclobutyl]phenyl}-1H,6H,7H-pyrrolo[2,3-c]pyridin-7-one], in assay [1], the pIC50 was greater than 7.00. Moreover, the negative logarithm of the EC50 (pEC50) in assay [2] is greater than 7.00.

With `CC1CC(c2cccc(-n3cc(C4CC4)c4cc(CN[C@H]5CCOC5)[nH]c4c3=O)c2)(c2nncn2C)C1` (stereo partly drawn) [Example 56, 4-cyclopropyl-2-({[(3S)-oxolan-3-yl]amino}methyl)-6-{3-[(1r,3s)-3-methyl-1-(4-methyl-4H-1,2,4-triazol-3-yl)cyclobutyl]phenyl}-1H,6H,7H-pyrrolo[2,3-c]pyridin-7-one], the negative-log IC50 (pIC50) in assay [1] was greater than 7.00. This compound had a negative logarithm of the EC50 (pEC50) in assay [2] of 6.00 to 7.00.

`CC1CC(c2cccc(-n3cc(C4CC4)c4cc(CN5CCC(F)(F)[C@H](C)C5)[nH]c4c3=O)c2)(c2nncn2C)C1` (stereo partly drawn) [Example 57, 4-cyclopropyl-2-{[(3R)-4,4-difluoro-3-methylpiperidin-1-yl]methyl}-6-{3-[3-methyl-1-(4-methyl-4H-1,2,4-triazol-3-yl)cyclobutyl]phenyl}-1H,6H,7H-pyrrolo[2,3-c]pyridin-7-one]: the negative logarithm of the IC50 (pIC50) in assay [1] is greater than 7.00. In assay [2], the negative logarithm of the EC50 (pEC50) was 6.00 to 7.00.

As to `CC1CC(c2cccc(-n3cc(C4CC4)c4cc(CN5CC(F)(F)C5)[nH]c4c3=O)c2)(c2nncn2C)C1` (stereo not drawn) [Example 58, 4-cyclopropyl-2-[(3,3-difluoroazetidin-1-yl)methyl]-6-{3-[3-methyl-1-(4-methyl-4H-1,2,4-triazol-3-yl)cyclobutyl]phenyl}-1H,6H,7H-pyrrolo[2,3-c]pyridin-7-one], the negative logarithm of the IC50 (pIC50) in assay [1] was greater than 7.00. This compound showed a negative-log EC50 (pEC50) in assay [2] of 6.00 to 7.00.

`CC1CC(c2cccc(-n3cc(C4CC4)c4cc(CN5C[C@@H]6C[C@H]5CN6)[nH]c4c3=O)c2)(c2nncn2C)C1` (stereo partly drawn) [Example 59, 4-cyclopropyl-2-{[(1S,4S)-2,5-diazabicyclo[2.2.1]heptan-2-yl]methyl}-6-{3-[3-methyl-1-(4-methyl-4H-1,2,4-triazol-3-yl)cyclobutyl]phenyl}-1H,6H,7H-pyrrolo[2,3-c]pyridin-7-one] had a pIC50 in assay [1] greater than 7.00. The compound also showed a pEC50 in assay [2] of less than 5.30.

`CC1CC(c2cccc(-n3cc(C4CC4)c4cc(CN5[C@@H]6COC[C@H]5C6)[nH]c4c3=O)c2)(c2nncn2C)C1` (stereo partly drawn) [Example 60, 4-cyclopropyl-6-{3-[3-methyl-1-(4-methyl-4H-1,2,4-triazol-3-yl)cyclobutyl]phenyl}-2-{[(1R,5S)-3-oxa-6-azabicyclo[3.1.1]heptan-6-yl]methyl}-1H,6H,7H-pyrrolo[2,3-c]pyridin-7-one] gave a negative logarithm of the IC50 (pIC50) in assay [1] greater than 7.00. This compound gave a negative logarithm of the EC50 (pEC50) in assay [2] of 5.30 to 6.00.

Take `CC1CC(c2cccc(-n3cc(C4CC4)c4cc(CN5CCN(C)[C@H](C)C5)[nH]c4c3=O)c2)(c2nncn2C)C1` (stereo partly drawn) [Example 61, 4-cyclopropyl-2-{[(3R)-3,4-dimethylpiperazin-1-yl]methyl}-6-{3-[3-methyl-1-(4-methyl-4H-1,2,4-triazol-3-yl)cyclobutyl]phenyl}-1H,6H,7H-pyrrolo[2,3-c]pyridin-7-one]: the negative-log IC50 (pIC50) in assay [1] was 6.00 to 7.00. Moreover, in assay [2], the pEC50 was 5.30 to 6.00.

Turning to `CC1CC(c2cccc(-n3cc(C4CC4)c4cc(CN5C[C@@H]6C[C@H]5CN6C)[nH]c4c3=O)c2)(c2nncn2C)C1` (stereo partly drawn) [Example 62], in assay [1], the pIC50 was 6.00 to 7.00. Also, the negative logarithm of the EC50 (pEC50) in assay [2] is less than 5.30.

On to `CC1CC(c2cccc(-n3cc(C4CC4)c4cc(CN5CCC6(CC6)C5)[nH]c4c3=O)c2)(c2nncn2C)C1` (stereo not drawn) [Example 63, 2-({5-azaspiro[2.4]heptan-5-yl}methyl)-4-cyclopropyl-6-{3-[(1r,3s)-3-methyl-1-(4-methyl-4H-1,2,4-triazol-3-yl)cyclobutyl]phenyl}-1H,6H,7H-pyrrolo[2,3-c]pyridin-7-one], for which the negative logarithm of the IC50 (pIC50) in assay [1] was greater than 7.00. The same compound gave a negative logarithm of the EC50 (pEC50) in assay [2] greater than 7.00.

`CC1CC(c2cccc(-n3cc(C4CC4)c4cc(CN5CCC[C@H](F)C5)[nH]c4c3=O)c2)(c2nncn2C)C1` (stereo partly drawn) [Example 64, 4-cyclopropyl-2-{[(3S)-3-fluoropiperidin-1-yl]methyl}-6-{3-[(1r,3s)-3-methyl-1-(4-methyl-4H-1,2,4-triazol-3-yl)cyclobutyl]phenyl}-1H,6H,7H-pyrrolo[2,3-c]pyridin-7-one]: the pIC50 in assay [1] is greater than 7.00. The pEC50 in assay [2] was 6.00 to 7.00.

In the case of `CC1CC(c2cccc(-n3cc(C4CC4)c4cc(CN5C[C@@H](F)C[C@H](F)C5)[nH]c4c3=O)c2)(c2nncn2C)C1` (stereo partly drawn) [Example 65, 4-cyclopropyl-2-{[(3S,5S)-3,5-difluoropiperidin-1-yl]methyl}-6-{3-[(1r,3s)-3-methyl-1-(4-methyl-4H-1,2,4-triazol-3-yl)cyclobutyl]phenyl}-1H,6H,7H-pyrrolo[2,3-c]pyridin-7-one], the pIC50 in assay [1] is greater than 7.00. The compound also had a pEC50 in assay [2] of 5.30 to 6.00.

Take `CC1CC(c2cccc(-n3cc(C4CC4)c4cc(CN5CCCC(F)(F)C5)[nH]c4c3=O)c2)(c2nncn2C)C1` (stereo not drawn) [Example 66, 4-cyclopropyl-2-[(3,3-difluoropiperidin-1-yl)methyl]-6-{3-[(1r)-3-methyl-1-(4-methyl-4H-1,2,4-triazol-3-yl)cyclobutyl]phenyl}-1H,6H,7H-pyrrolo[2,3-c]pyridin-7-one]: the negative-log IC50 (pIC50) in assay [1] was 6.00 to 7.00. The pEC50 in assay [2] is 5.30 to 6.00.

In assay [1], `CC1CC(c2cccc(-n3cc(C4CC4)c4cc(CN5C[C@H](F)C[C@H](F)C5)[nH]c4c3=O)c2)(c2nncn2C)C1` (stereo partly drawn) [Example 67, 4-cyclopropyl-2-{[(3R,5S)-3,5-difluoropiperidin-1-yl]methyl}-6-{3-[(1r)-3-methyl-1-(4-methyl-4H-1,2,4-triazol-3-yl)cyclobutyl]phenyl}-1H,6H,7H-pyrrolo[2,3-c]pyridin-7-one] gave a pIC50 of 6.00 to 7.00. Moreover, the pEC50 in assay [2] was 5.30 to 6.00.

With `CC1CC(c2cccc(-n3cc(C4CC4)c4cc(CN5CCN(C)C[C@@H]5C(C)C)[nH]c4c3=O)c2)(c2nncn2C)C1` (stereo partly drawn) [Example 68, 4-cyclopropyl-2-{[(2S)-4-methyl-2-(propan-2-yl)piperazin-1-yl]methyl}-6-{3-[(1r,3s)-3-methyl-1-(4-methyl-4H-1,2,4-triazol-3-yl)cyclobutyl]phenyl}-1H,6H,7H-pyrrolo[2,3-c]pyridin-7-one], in assay [1], the pIC50 is greater than 7.00. The compound further had a pEC50 in assay [2] of 6.00 to 7.00.

Turning to `CC1CC(c2cccc(-n3cc(C4CC4)c4cc(CN(C)S(C)(=O)=O)[nH]c4c3=O)c2)(c2nncn2C)C1` (stereo not drawn) [Example 69, N-[(4-cyclopropyl-7-oxo-6-{3-[(1r,3s)-3-methyl-1-(4-methyl-4H-1,2,4-triazol-3-yl)cyclobutyl]phenyl}-1H,6H,7H-pyrrolo[2,3-c]pyridin-2-yl)methyl]-N-methylmethanesulfonamide], the pIC50 in assay [1] was 6.00 to 7.00. Also, the pEC50 in assay [2] was 5.30 to 6.00.

Compound `Cn1cnnc1C1(c2cccc(-n3cc(C4CC4)c4cc(CN5CCC6(CC6)C5)[nH]c4c3=O)c2)CC2(CC2)C1` [Example 70, 2-({5-azaspiro[2.4]heptan-5-yl}methyl)-4-cyclopropyl-6-{3-[5-(4-methyl-4H-1,2,4-triazol-3-yl)spiro[2.3]hexan-5-yl]phenyl}-1H,6H,7H-pyrrolo[2,3-c]pyridin-7-one] had a pIC50 in assay [1] greater than 7.00. Besides, the negative-log EC50 (pEC50) in assay [2] was 6.00 to 7.00.

In general, pIC50 refers to −log10 of the IC50, conventionally taken in molar units. Low readings indicate a large IC50, high ones a small IC50. For orientation: pEC50 means −log10 of the EC50, conventionally taken in molar units. Read a high pEC50 as a small EC50.
